Measured values as given in patent US9115092B2, “Substituted quinazoline and pyrido-pyrimidine derivatives” (Asana Biosciences, LLC, priority 2010, dated 2015).

Key:
pAkt(5473), BT474 cells = experiment: In-cell Western assay, pAkt(5473) in BT474 cells; assay type: cell-based; details: Homo sapiens, BT-474, BT474 cell line, read-out: inhibition of pAkt(5473), IC50
pAkt(5473), T47D cells = experiment: In-cell Western assay, pAkt(5473) in T47D cells; assay type: cell-based; details: Homo sapiens, T47D cell line, read-out: inhibition of pAkt(5473), IC50
pS6RP, BT474 cells = experiment: In-cell Western assay, pS6RP in BT474 cells; assay type: cell-based; details: Homo sapiens, BT-474, BT474 cell line, read-out: inhibition of pS6RP, IC50
pS6RP, T47D cells = experiment: In-cell Western assay, pS6RP in T47D cells; assay type: cell-based; details: Homo sapiens, T47D cell line, read-out: inhibition of pS6RP, IC50
BT474 cells = experiment: XTT assay for cell viability, BT474 cells; assay type: cell-based; details: Homo sapiens, BT-474, read-out: inhibition of cell proliferation, IC50
Experimental: (§1) Using a commercial kit from Sigma Aldrich (Catalog #X34251) and following its protocol, PC3 cells in the log phase of growth were employed and seeded at an optimal density of 1000 cell/well on to 96 well plates and incubated for 24 h followed by the addition of compounds of formula (I) in serial dilutions. Compound dilutions were made in DMSO. The cells were incubated with the compounds of formula (I) for 96 h and XTT tetrazolium dye (Sigma, USA) was subsequently added and incubated at 37° C. After the color formation, absorbance was measured at 465 nm in a Spectramax® Gemini spectrophotometer. EC50 values were calculated using a sigmoidal dose response curve fit in GraphPad Prism® v5 software. The tested compounds of formula (I) which caused inhibition of PC3 cell proliferation as determined by this assay protocol are shown in Table 2.
(§2) XTT assays for cell viability are also determined in BT474 cells and T47D cells, in a similar manner to the protocol described above.

T47D cells = experiment: XTT assay for cell viability, T47D cells; assay type: cell-based; details: Homo sapiens, read-out: inhibition of cell proliferation, IC50
Experimental: as §1, §2

PI3 kinase isoform γ = PI3 kinase isoform γ (Homo sapiens, UniProt P48736); experiment: PI3 Kinase TR-FRET assay, isoform γ; assay type: biochemical; details: read-out: inhibition of PI3 kinase isoform γ, IC50
Experimental: (§3) The ability of compounds of the invention to inhibit PI3K activity was determined in a homogeneous TR-FRET assay using a PI3K assay kit (Millipore, USA; cat #33-016) according to manufacturer's instructions. PI3-Kinases (isoforms α, β, γ and δ) catalyze the phosphorylation of phosphatidylinositol, PIP2 to PIP3 in the presence of ATP and Mg^2+. The PIP3 product is detected by displacement of biotin-PIP3 from an energy transfer complex consisting of Europium labeled anti-GST monoclonal antibody, a GST-tagged PH domain, biotinylated PIP3 and Streptavidin-APC. Excitation of Europium in the complex results in an energy transfer to the APC and a fluorescence emission at 665 nm. The PIP3 product displaces biotin-PIP3 from the complex resulting in a loss of energy transfer and thus a decrease in signal.
To test for the ability of compounds to inhibit the activity of PI3Kα (wild-type), exemplary compounds of formula (I) were dissolved in DMSO and directly distributed into 384-well plates at a volume of 0.5 μL. […] Fluorescence was measured at 615 and 665 nm upon excitation at 340 nm in a Victor™ V5 fluorometer (Perkin Elmer, USA). The fluorescence emission ratio at 665 to 615 nm, proportional to the kinase activity, was plotted against the compound concentration to generate dose-response curves and IC50 values were determined using GraphPad Prism® 5 software. […]

PI3 kinase isoform δ = PI3 kinase isoform δ (Homo sapiens, UniProt O00329); experiment: PI3 Kinase TR-FRET assay, isoform δ; assay type: biochemical; details: read-out: inhibition of PI3 kinase isoform δ, IC50
Experimental: as §3
To test for the ability of compounds to inhibit the activity of PI3Kα (wild-type), exemplary compounds of formula (I) were dissolved in DMSO and directly distributed into 384-well plates at a volume of 0.5 μL. 14.5 μL of P110/P85α/PIP2 mixture in buffer (obtained from the Millipore kit) containing MgCl2 (40 mM) and DTT (5 mM) was added to compound wells and incubated for 60 min at room temperature. P110/P85α was expressed in SF9 insect cells and purified nickel column extraction. Five ng of wild-type P110/P85α was used in the assay. The kinase reaction was started by the addition of ATP. The assay concentrations of both PIP2 and ATP were 10 μM. The reaction mixture was incubated for 30 min at room temperature and was terminated by the addition of stop mix and detection mix. Fluorescence was measured at 615 and 665 nm upon excitation at 340 nm in a Victor™ V5 fluorometer (Perkin Elmer, USA). The fluorescence emission ratio at 665 to 615 nm, proportional to the kinase activity, was plotted against the compound concentration to generate dose-response curves and IC50 values were determined using GraphPad Prism® 5 software.
The activity of PI3 kinase isoforms β, γ and δ were assayed in a similar manner to the assay protocol described above for PI3Kα, by substituting the appropriate p110/p85 isoform for the p110α/p85α. Compounds of formula (I) caused inhibition of PI3 kinase isoforms β, γ and δ as determined by these assays. For example, the compounds of examples 3, 51, 54, 111, 113, 115, and 253 each caused inhibition of PI3 kinase isoform β with IC50 values <50 nM. The compounds of examples 104, 133, 146 and 152 each caused inhibition of PI3 kinase isoform β with IC50 values <500 nM. The compounds of examples 3, 51, 54, 104, 111, 113, 115, 133, 253, and 152 each caused inhibition of PI3 kinase isoform γ with IC50 values <500 nM. […] The compounds of examples 2, 3, 51, 54, 111, 113, and 253 each caused inhibition of PI3 kinase isoform […] with IC50 values >1 μM.

PI3 kinase isoform δ, sequence (O00329 whole entry, canonical isoform): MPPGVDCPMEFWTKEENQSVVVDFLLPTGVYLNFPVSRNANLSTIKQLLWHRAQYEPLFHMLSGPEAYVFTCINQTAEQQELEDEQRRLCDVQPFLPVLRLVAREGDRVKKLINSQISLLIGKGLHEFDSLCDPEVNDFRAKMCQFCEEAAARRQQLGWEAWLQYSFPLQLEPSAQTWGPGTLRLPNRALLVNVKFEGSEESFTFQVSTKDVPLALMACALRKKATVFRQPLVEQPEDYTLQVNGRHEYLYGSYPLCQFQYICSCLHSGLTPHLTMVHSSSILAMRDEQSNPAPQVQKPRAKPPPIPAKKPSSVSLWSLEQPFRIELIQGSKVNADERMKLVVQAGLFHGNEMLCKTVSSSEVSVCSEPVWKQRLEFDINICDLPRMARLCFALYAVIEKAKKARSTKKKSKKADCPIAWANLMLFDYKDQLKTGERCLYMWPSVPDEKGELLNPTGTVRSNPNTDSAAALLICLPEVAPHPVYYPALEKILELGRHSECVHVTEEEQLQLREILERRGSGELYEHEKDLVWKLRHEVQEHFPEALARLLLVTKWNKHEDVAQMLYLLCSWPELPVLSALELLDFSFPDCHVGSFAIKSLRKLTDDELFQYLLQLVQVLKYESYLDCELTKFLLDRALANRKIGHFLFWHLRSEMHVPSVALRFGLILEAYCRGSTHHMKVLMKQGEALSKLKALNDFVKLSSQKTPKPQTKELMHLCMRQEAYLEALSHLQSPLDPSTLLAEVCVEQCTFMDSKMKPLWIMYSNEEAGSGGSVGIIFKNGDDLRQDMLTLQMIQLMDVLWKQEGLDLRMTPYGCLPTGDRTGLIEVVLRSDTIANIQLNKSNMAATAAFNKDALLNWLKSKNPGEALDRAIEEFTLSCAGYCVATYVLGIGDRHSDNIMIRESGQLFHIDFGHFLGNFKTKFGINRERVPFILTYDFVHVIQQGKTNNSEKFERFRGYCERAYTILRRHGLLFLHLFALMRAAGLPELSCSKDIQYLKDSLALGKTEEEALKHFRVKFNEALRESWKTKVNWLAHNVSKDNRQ
PI3 kinase isoform δ, sequence (P27986 whole entry partner, canonical isoform): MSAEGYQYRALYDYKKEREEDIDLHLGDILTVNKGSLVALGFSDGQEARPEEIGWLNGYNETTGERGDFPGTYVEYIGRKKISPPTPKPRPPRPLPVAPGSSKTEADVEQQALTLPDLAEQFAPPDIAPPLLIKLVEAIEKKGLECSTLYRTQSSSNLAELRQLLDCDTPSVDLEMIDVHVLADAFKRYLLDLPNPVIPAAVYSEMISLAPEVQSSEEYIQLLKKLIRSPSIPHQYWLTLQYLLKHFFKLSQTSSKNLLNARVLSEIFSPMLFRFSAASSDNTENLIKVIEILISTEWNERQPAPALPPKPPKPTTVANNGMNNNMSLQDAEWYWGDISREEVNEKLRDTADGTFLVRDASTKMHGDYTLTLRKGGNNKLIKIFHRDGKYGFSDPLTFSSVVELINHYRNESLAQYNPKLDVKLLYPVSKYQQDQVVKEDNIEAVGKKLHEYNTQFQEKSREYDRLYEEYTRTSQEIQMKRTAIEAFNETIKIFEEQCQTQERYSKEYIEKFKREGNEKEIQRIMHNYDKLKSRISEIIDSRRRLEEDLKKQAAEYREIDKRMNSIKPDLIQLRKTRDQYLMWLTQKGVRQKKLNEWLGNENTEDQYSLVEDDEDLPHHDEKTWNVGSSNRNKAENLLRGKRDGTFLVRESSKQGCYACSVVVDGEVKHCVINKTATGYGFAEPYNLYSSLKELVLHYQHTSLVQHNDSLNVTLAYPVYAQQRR
PI3 kinase isoform γ, sequence (P48736 whole entry, the tested form may be a part, canonical isoform): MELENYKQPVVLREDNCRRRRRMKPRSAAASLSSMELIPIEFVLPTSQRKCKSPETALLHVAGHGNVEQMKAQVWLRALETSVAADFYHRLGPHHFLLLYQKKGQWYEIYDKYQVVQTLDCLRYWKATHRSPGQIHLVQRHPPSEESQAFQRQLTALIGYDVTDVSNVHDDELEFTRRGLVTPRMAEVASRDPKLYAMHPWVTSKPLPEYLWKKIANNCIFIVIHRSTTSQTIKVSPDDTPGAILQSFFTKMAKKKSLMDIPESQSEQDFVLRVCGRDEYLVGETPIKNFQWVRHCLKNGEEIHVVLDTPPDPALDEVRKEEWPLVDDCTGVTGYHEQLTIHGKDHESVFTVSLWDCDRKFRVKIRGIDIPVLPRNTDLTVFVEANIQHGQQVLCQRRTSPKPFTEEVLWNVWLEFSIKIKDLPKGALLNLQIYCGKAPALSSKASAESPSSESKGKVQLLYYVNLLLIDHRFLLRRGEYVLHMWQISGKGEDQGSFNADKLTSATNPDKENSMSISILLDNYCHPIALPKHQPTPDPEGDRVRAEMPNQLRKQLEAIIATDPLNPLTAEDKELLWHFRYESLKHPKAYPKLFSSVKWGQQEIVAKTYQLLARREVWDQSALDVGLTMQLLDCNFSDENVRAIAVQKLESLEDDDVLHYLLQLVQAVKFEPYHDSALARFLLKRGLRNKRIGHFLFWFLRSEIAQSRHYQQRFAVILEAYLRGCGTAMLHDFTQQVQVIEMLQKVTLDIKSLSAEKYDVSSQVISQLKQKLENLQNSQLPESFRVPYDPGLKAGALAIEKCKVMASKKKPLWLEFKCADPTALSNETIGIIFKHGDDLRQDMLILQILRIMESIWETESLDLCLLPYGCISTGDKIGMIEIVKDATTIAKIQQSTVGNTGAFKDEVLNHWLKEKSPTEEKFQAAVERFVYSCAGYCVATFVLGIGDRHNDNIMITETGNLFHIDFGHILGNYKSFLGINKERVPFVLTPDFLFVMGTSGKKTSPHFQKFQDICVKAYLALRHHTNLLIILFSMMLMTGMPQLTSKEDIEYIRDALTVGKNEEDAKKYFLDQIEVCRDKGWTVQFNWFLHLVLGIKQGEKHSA

SMILES | IC50 (pAkt(5473), BT474 cells) | IC50 (pAkt(5473), T47D cells) | IC50 (pS6RP, BT474 cells) | IC50 (pS6RP, T47D cells) | IC50 (BT474 cells) | IC50 (T47D cells) | IC50 (PI3 kinase isoform γ) | IC50 (PI3 kinase isoform δ)
CN(C)C(=O)c1ccc(NC(=O)Nc2ccc(-c3nc(N4CCOCC4)c4ccc(-c5cncnc5)cc4n3)cc2)cc1 [Example 1, N,N-Dimethyl-4-(3-{4-[4-morpholin-4-yl-7-pyrimidin-5-yl-quinazolin-2-yl)-phenyl]-ureido}-benzamide] | < 300 nM | < 300 nM | < 50 nM | < 50 nM | < 100 nM | < 100 nM |  | 
Cc1ccc(-c2ccc3c(N4CCOCC4)nc(-c4ccc(NC(=O)Nc5ccc(C(=O)N(C)C)cc5)cc4)nc3c2)o1 [Example 2, N,N-Dimethyl-4-(3-{4-[7-(5-methyl-furan-2-yl)-4-morpholin-4-yl-quinazolin-2-yl]-phenyl}-ureido)-benzamide] |  |  |  |  |  |  | < 1000 nM | > 1000 nM
CN(C)C(=O)c1ccc(NC(=O)Nc2ccc(-c3nc(N4CCOCC4)c4ccc(-c5ccco5)cc4n3)cc2)cc1 [Example 51, 4-{3-[4-(7-furan-2-yl-4-morpholin-4-yl-quinazolin-2-yl)-phenyl]-ureido}-N,N-dimethyl-benzamide] |  |  |  |  |  |  |  | > 1000 nM
